These results are taken from publication PMC7467243, “Response to and recovery from treatment in human liver-mimetic clinostat spheroids: a model for assessing repeated-dose drug toxicity” (Toxicology Research, 2020).

For series [1] the following is noted: cited from earlier work; for Biological half-life (h): in vivo.
For series [2] the following is noted: cited from earlier work.
The next series relates to HepG2–C3A spheroids. How it is done: Three hundred 21-day old spheroids (corresponding to ~25 million cells or 3.5 mg protein) were gently pipetted (using a cut-tip) into each 10 ml bioreactor before treatment to provide ample material for analysis. To initiate drug treatment, the bioreactor rotation was stopped for 30 s to allow the spheroids to settle to the bottom of the bioreactor. […] Each narrow range experiment was carried out in duplicate and ATP was measured in technical triplicates for each sample. […] Data were normalized to the vehicle-treated control. Error bars in the figures show standard deviation.
Cell viability was measured based on their ability to produce ATP [37]. […] The cells were then lysed with 100 μl of lysis buffer (CellTiter-Glo luminescent cell viability assay, Promega, Fitchburg, WI, Cat. no. G7571) and shaken in the dark for 20 min. Before the luminescence was measured in a FluoStar OPTIMA (BMG Labtech, Ortenberg, Germany) using the following parameters: one kinetic window, 10 measurement cycles with 0.3 s of measurement interval time, 2-s delay per measurement, additional 0.5-s delay per position change (repeated twice for each measured plate). Replicates were performed as described under the ‘Drug treatment’ Section. The data were normalized with reference to a standard curve for ATP and to the untreated control.

Details of series [3]: method as in PMID 22407198, PMID 12889529. As to conditions: therapeutic dose 4 g/day; cited from earlier work.
The conditions of series [4]: cited from earlier work. This is another data set of the same source.
In a further series the test system is HepG2/C3A spheroids. Also on record: method as in earlier work. As to conditions: cited from earlier work.

For the compound `O=C(O)Cc1ccccc1Nc1c(Cl)cccc1Cl` [Diclofenac], the “Biological half-life (h)” value in series [1] is on record as 1–2 h. For the same compound, in series [2], the “effectiveness as an anti-inflammatory agent compared with other non-steroidal anti-inflammatory drugs” value is 3-1000 ×.
With `[H]/N=C(/N)N/C(=N/[H])NCCc1ccccc1` [Phenformin], in series [1], the half-life is reported as 7 h and the “Biological half-life (h)” value is recorded as 4–13 h.
As for `CC(=O)Nc1ccc(O)cc1` [Paracetamol], the chronically lethal dose with HepG2–C3A spheroids (four treatments at 48-h intervals killed the spheroids, relative to 20 mg paracetamol per mg protein) is listed as “Half of this dose”. In addition, the acutely lethal dose in the series on HepG2–C3A spheroids (glucose medium) is listed as 20 mg paracetamol per mg protein. For the same compound, the “Biological half-life (h)” value in series [1] is recorded as 2–4 h. The blood concentration in series [3] is 10 to 25 µg/mL. In series [4], the “Toxic dose, μg/ml in blood” value is 100 to 150 µg/mL.
As to `CCCC(CCC)C(=O)O` [VPA, valproic acid], the “Biological half-life (h)” value in series [1] is recorded as 10–20 h. Further, in the series with HepG2/C3A spheroids, the acute toxicity threshold is given as 20 mg VPA per mg protein and the chronic toxicity threshold is 4 mg VPA per mg protein. Further, in series [4], the “Toxic dose, μg/ml in blood” value is 40 to 100 µg/mL.
As for `CN(C)C(=N)N=C(N)N` [Metformin], the “reduction in ATP production” value with HepG2–C3A spheroids (5 mg/mg (highest dose), glucose medium) is 70%.
